Test results from patent US20030068282A1, “Composition” (Unilever Home & Personal Care USA, Division of Conopco, Inc., priority 2001, published 2003).

Assay: salivary sediment model: amount of n-octyl paraben delivered from toothpaste to salivary sediment
Assay type: in vitro ADME
Settings: for amount of paraben delivered, Rep 1 / amount of paraben delivered, Rep 2 / amount of paraben delivered, Mean: toothpaste with 1.1% n-octyl paraben; for amount of paraben delivered, Rep 1 / amount of paraben delivered, Rep 2: ex-vivo samples; for amount of paraben delivered, Mean: mean of two repetitions
Protocol: Standard toothpastes comprising SLS and n-octyl paraben were tested in a salivary sediment model similar to that described by R. L. Wijeijweera and I. Kleinberg in Archs. Oral Biol., Vol. 34, No. 1, 1989, pages 43-53, using ex-vivo samples and measuring the amount of n-octyl paraben delivered to the salivary sediment.
Two repetitions were carried out for each SLS level in a paste comprising 1.1% n-octyl paraben. The values represnet the amount (ppm per ml sediment suspension) of paraben delivered.

amount of paraben delivered, Rep 1 (1.4% SLS in base): 60.080 ppm per ml sediment suspension
amount of paraben delivered, Rep 2 (1.4% SLS in base): 61.657 ppm per ml sediment suspension
amount of paraben delivered, Mean (1.4% SLS in base): 60.869 ppm per ml sediment suspension
amount of paraben delivered, Rep 1 (1.6% SLS in base): 59.534 ppm per ml sediment suspension
amount of paraben delivered, Rep 2 (1.6% SLS in base): 63.775 ppm per ml sediment suspension
amount of paraben delivered, Mean (1.6% SLS in base): 61.654 ppm per ml sediment suspension
amount of paraben delivered, Rep 1 (1.8% SLS in base): 48.790 ppm per ml sediment suspension
amount of paraben delivered, Rep 2 (1.8% SLS in base): 48.352 ppm per ml sediment suspension
amount of paraben delivered, Mean (1.8% SLS in base): 48.571 ppm per ml sediment suspension
Compound: CCCCCCCCOC(=O)c1ccc(O)cc1 [n-octyl paraben]
level of paraben delivered, comparison between SLS levels (SLS levels 1.4 and 1.6% compared with 1.8%): greater at SLS levels ranging at 1.4 and 1.6% than for 1.8%
